In patent publication US5079263A, “Manumycin derivatives and the use thereof” (Behringwerke Aktiengesellschaft, priority 1987, dated 1992):

Biological target: T1, PMN elastase (Homo sapiens, UniProt P08246)
T1 construct: The elastase was isolated from human leukocytes; from tissue; host or cells: human leukocytes
T1 sequence (P08246 30-247 limits assumed): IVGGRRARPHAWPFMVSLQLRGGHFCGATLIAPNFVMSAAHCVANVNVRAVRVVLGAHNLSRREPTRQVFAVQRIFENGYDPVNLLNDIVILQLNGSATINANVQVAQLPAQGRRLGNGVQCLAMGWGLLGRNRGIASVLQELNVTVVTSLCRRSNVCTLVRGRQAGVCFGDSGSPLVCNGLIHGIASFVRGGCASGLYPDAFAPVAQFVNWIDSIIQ
Assay: Assay for Elastase from Polymorphonuclear Granulocytes (PMN Elastase)
Assay type: biochemical
Set-up: key to inhibiting effect in PMN elastase assay (inactive): Substances which showed no inhibiting effect at the maximum concentration of 100 μg/ml were defined as inactive
Details: for IC50: 1 hour preincubation with enzyme, substrate MeO-Suc-Ala-Ala-Pro-Val-pNA, 15 minutes, 405 nm, maximum 100 μg/ml, read-out: IC50 (inhibiting effect on PMN elastase) (converted); for inhibiting effect on PMN elastase, comparison in words: compared with manumycin / compounds (1) to (3)
Protocol: The elastase was isolated from human leukocytes by the method described by Engelbrecht et al. (Hoppe-Seyler's Physiol. Chem. 363, pp. 305-315, 1982). The substrate used was the MeO-Suc-[…] (Calbiochem) described by Nakajima et al. (J. Biol. Chem. 254, pp. 4027-4032, 1979). The Liberation of the p-nitroaniline from the substrate in 15 minutes was measured as the increase in absorption at 405 nm in a spectrophotometer. This absorption was defined as 100% activity of the enzyme PMN elastase. The inhibitors of PMN elastase were preincubated in increasing concentrations up to a maximum of 100 μg/ml with the enzyme for 1 hour, and the enzyme reaction was started with the substrate. The IC50 was defined as that inhibitor concentration which inhibits 50% of the enzyme activity.

Compound	inhibiting effect in PMN elastase assay (inactive) (maximum concentration 100 μg/ml, "--" in Table 2)	inhibition of leukocyte elastase, in words	IC50 [µM]	inhibiting effect on PMN elastase, comparison in words
Nc1cccc(/C=C/C=C/C=C/C(=O)NC2=C(O)CCC2=O)c1 [Compound (4)]	inactive			
CCCC[C@@H](C)/C=C(C)/C=C(\C)C(=O)Nc1cc(/C=C/C=C/C=C/C(=O)NC2=C(O)CCC2=O)ccc1O [Compound (2)]		inhibit leukocyte elastase	5.98	
CCCC[C@@H](C)/C=C(C)/C=C(\C)C(=O)Nc1cccc(/C=C/C=C/C=C/C(=O)NC2=C(O)CCC2=O)c1 [Compound (3)]		inhibit leukocyte elastase	7.16	
CCCC[C@@H](C)/C=C(C)/C=C(\C)C(=O)Nc1cc(/C=C/C=C/C=C/C(=O)NC2=C(O)CCC2=O)c(O)cc1O [Compound (1)]		inhibit leukocyte elastase	4.68	

Second part, led by results:

inhibiting effect in PMN elastase assay (inactive) (maximum concentration 100 μg/ml, "--" in Table 2)	inhibition of leukocyte elastase, in words	IC50 [µM]	Compound	inhibiting effect on PMN elastase, comparison in words
	inhibit leukocyte elastase	135	Nc1ccc(/C=C/C=C/C=C/C(=O)NC2=C(O)CCC2=O)cc1 [Compound (5)]	distinctly weaker inhibiting effect
		7.99	CCCCC(C)C=C(C)C=C(C)C(=O)NC1=CC(O)(C=CC=CC=CC(=O)NC2=C(O)CCC2=O)C2OC2C1=O (stereo not drawn) [Manumycin, manumycin]	comparable to that of the compounds (1) to (3)
